Consider twelve compounds from PMC6855259, “Acylation-coupled lipophilic induction of polarisation (Acyl-cLIP): a universal assay for lipid transferase and hydrolase enzymes” (Chemical Science, 2019).

For assay [1], the target named is T1, HHAT (Homo sapiens, UniProt Q5VTY9).
T1 construct: FLAG (C); His (C); made in house; host or cells: HEK293a cells stably overexpressing HHAT-FLAG-His
Nature of the assay: Pilot HTS Acyl-cLIP screen of FDA-approved drugs, purified HHAT, stopped-assay conditions. It counts as biochemical. The conditions noted are these: compounds screened at 25 μM.

Assay [2] addresses T1, HHAT. Nature of the assay: HHAT Acyl-cLIP assay with HHAT-P100(sol): SHH-FAM palmitoylation, dose-response and kinetics. It counts as biochemical. The protocol:
Recombinant Protein Production
HHAT-enriched solubilised membrane fractions (HHAT-P100(sol)) were prepared as previously described,[4] with the following modifications. HEK293a cells overexpressing HHAT-FLAG-His (HEK293a HHAT+) were cultured, harvested by trypsinisation, and washed with PBS as previously described.[9] Cells (5 × 106) in DMEM/FBS (35 mL) were inoculated on sterilised CultiSphere S microcarriers (100 mg) in a spinner flask (Corning), and incubated as previously described. After 24 h, DMEM/FBS (15 mL) was added and cells incubated with stirring (~30 rpm), with addition on DMEM/FBS (50 mL) after 24 h. DMEM/FBS (50 mL) was refreshed every subsequent 24 h. After 5 days, microcarriers were collected by centrifugation (1,000 g, 1 min), and washed with PBS (25 mL). Microcarriers were digested with trypsin (3 mL) with visual monitoring by microscopy (5-15 min, see Supplementary Figure S11D) to release HEK293a HHAT+ cells, which were washed with DMEM/FBS (25 mL) and PBS […]
(25 mL). […]
25 kPSI through a Cell Disruptor (Constant Systems). Lysates were cleared by centrifugation (20,000 g, 30 min, 4 °C), and the supernatant passed through a HisTrap™ Fast Flow column (GE Healthcare). Bound protein was eluted with elution buffer (50 mM TRIS, 150 mM NaCl, 300 mM imidazole, pH 8.8), and concentrated to 2 mL in a Protein Concentrator PES (Pierce, 10,000 MWCO). The sample was cleared by centrifugation (20,000 g, 5 min, 4 °C) and purified using a S75 16/600 gel filtration column (Generon), eluting with storage buffer (50 mM TRIS, 150 mM NaCl, pH 7.4). Fractions containing protein were pooled, concentrated (5 mg/mL APT1, 4 mg/mL APT2), flash frozen, and stored at −80 °C.
Fluorescence measurements were recorded on an EnVision Xcite 2104 (PerkinElmer).
FAM-labelled peptides were measured using a FITC FP D505fp mirror module, FITC FP 480 nm excitation filter (30 nm bandwidth), FITC FP P-pol 535 nm first emission filter (40 nm bandwidth), and FITC FP S-pol 535 nm second emission filter (40 nm bandwidth). Continuous reaction monitoring was conducted using measurement height = 9.52 mm, 8 flashes/well, PMT gain = 319, and G-factor = 1.09. For the HHAT pilot screen, stopped-assay measurements were performed using measurement height = 9.52 mm, 60 flashes/well, PMT gain = 319, and G-factor = 1.09. The NMT acyl-cLIP assay continuous reaction monitoring was conducted using measurement height = 6.6 mm, 1 flash/well, PMT gain = 163, and G- […]
TAMRA-labelled peptides were measured using a BODIPY TMR FP D555fp mirror module, BODIPY TMR FP 531 nm excitation filter (25 nm bandwidth), BODIPY TMR FP P-pol 579 nm first emission filter (25 nm bandwidth), and BODIPY TMR FP S-pol 579 nm second emission filter (25 nm bandwidth). Continuous reaction monitoring was conducted using measurement height = 6.5 mm, 200 flashes/well, PMT gain = 255, and G-factor = 1.6.
HHAT-P100(sol) (450 µg/mL) in solubilisation buffer (20 mM HEPES, 350 mM NaCl, 1% (w/v) DDM, 5% glycerol, pH 7.3) was diluted 1:10 in SHH-FAM (2 µM) in reaction buffer (100 mM MES, 20 mM NaCl, 1 mM DTT, 1 mM TCEP, 0.1% (w/v) BSA, pH 6.5). The HHAT/SHH-FAM solution (12 µL/well) was dispensed into a black 384-well plate (Corning, 3575). The reaction was initiated by addition of Pal-CoA (7.5 µM) in reaction buffer (8 µL/well), and fluorescence readings collected every 1 min for 1 h. Under stopped-assay conditions, the reaction was halted by addition of SHH (220 µM) in reaction buffer (2 µL).
Detergents (2 mM) or BSA (0.15 mM) were tested for generation of polarised fluorescence from Pal-SHH-FAM or SHH-FAM (0.1 µM) in 100 mM MES, 20 mM NaCl. Detergent and BSA titrations were performed using 2-fold serial dilutions.
Small molecule inhibitors in DMSO were dispensed using an Echo 550 liquid handler (Labcyte), with a DMSO backfill volume of 50 nL. Substrate competitors SHH, SHH(FL), or Pal-SHH were serially diluted in reaction buffer (1:3) prior to addition to the HHAT/SHH-FAM […]
solution. […]

Assay [3] has as its system SHH acylation in HEK-293 SHH+ cells. Nature of the assay: In-cell YnC15 tagging assay of SHH acylation. It counts as cell-based, human. The conditions noted are these: inhibitors 20 µM, YnC15, AzTB ligation. The protocol: In-Cell YnC15 Tagging Assay
HEK293a SHH+ cells (500,000 cells/well) were plated in a 6-well plate in DMEM/FBS (3 mL/well) and cultured for 24 h. Cells were treated with inhibitors in DMSO (20 µM), two RUSKI-201 (20 µM) blind-positive controls and two DMSO (7.5 µL) blind-negative controls.
After 1 h, YnC15 (3 µL, 20 mM in DMSO) was added and cells cultured for a further 6 h before washing with PBS. Cells were lysed in PBS with Triton X-100 (1%), SDS (0.1% (w/v)) and Complete EDTA-free protease inhibitor cocktail (Roche Diagnostics). Cells were removed from plates by scraping, and lysates centrifuged (13,000 g, 10 min, 4 °C). The protein concentration of the supernatant was estimated using the DC Protein Assay (Bio-Rad) and adjusted to 1 mg/mL with lysis buffer. AzTB (1 µL, 10 mM in DMSO), CuSO4 (2 µL, 50 mM in H2O), TCEP (2 µL, 50 mM in H2O) and TBTA (1 µL, 10 mM in DMSO) were combined, and this mixture (6 µL) added to the lysate (100 µL). Samples were shaken at RT for 1 h, then proteins precipitated by addition of methanol (200 µL), chloroform (50 µL) and water (100 µL) followed by centrifugation (13,000 g, 5 min, 4 °C). The upper aqueous layer was removed without disturbing the protein layer at the interphase, methanol (0.5 mL) was added, and the precipitated proteins isolated by centrifugation (13,000 g, 10 min, 4 °C). Protein pellets were […]
washed twice with methanol, briefly air-dried and re-dissolved in PBS containing SDS (0.2% (w/v)) and DTT (0.1 mM) using sonication to a final concentration of 1 mg/mL.
10 µg of protein were separated on a 15% SDS-polyacrylamide gel. Fluorescence was recorded using a Typhoon imager (GE Healthcare; excitation laser: 532 nm, emission filter:
Proteins were transferred to a nitrocellulose membrane by wet transfer (100 V, 1 h), and membranes blocked with BSA (5% (w/v)) in TBS-T (50 mM TRIS, 150 mM NaCl, 0.1% Tween-20, pH 7.5) for 1 h at RT, followed by overnight incubation at 4°C with rabbit α-SHH (Santa Cruz Biotechnology; sc-9024; 1:200) in TBS-T with BSA (0.5% (w/v)) or mouse α-Tubulin (Santa Cruz Biotechnology; sc-8035; 1:200) in TBS-T with BSA (0.5% (w/v)). Membranes were washed with TBS-T (4 × 5 min) and incubated at RT for 1 h with HRP-conjugated Goat-α-mouse IgG (Advansta; 1:10,000) in TBS-T with BSA (0.5% (w/v)) or Goat-α-rabbit IgG (Advansta; 1:10,000) in TBS-T with BSA (0.5% (w/v)). Membranes were washed with TBS-T (4 × 5 min) and developed with Luminata Crescendo Western HRP substrate (Millipore) on a Fujifilm LAS-3000 imager. YnC15-labelled SHH band intensities were quantified using ImageJ 1.50i (National Institute of Health, USA).
HEK293a SHH+ cells (5,000 cells/well) were plated in a 96-well plate in DMEM/FBS […]
(50 µL/well) and cultured for 24 h. […]

Assay [4] is described as follows: Detergent/BSA titration for polarised emission of Pal-SHH-FAM (fluorescence anisotropy). Particulars: BSA titration with Pal-SHH-FAM; read-out: polarisation EC50.
Where [5] appears, read: HHAT, SHH-FAM substrate competition, read-out: IC50 as competitive inhibitor of SHH-FAM palmitoylation.
[6] abbreviates: HHAT-P100(sol) activity, SHH-FAM palmitoylation, 25 min reaction, four parameter fit, read-out: IC50 of HHAT inhibition.

Where a name gives a salt, the structure may show the parent alone. Read-outs that look alike come from different tables or passages of the source. Where a SMILES comes first, the peptide text is derived from it. Where no end group is shown, it is not given here.

T1 sequence (Q5VTY9 whole entry): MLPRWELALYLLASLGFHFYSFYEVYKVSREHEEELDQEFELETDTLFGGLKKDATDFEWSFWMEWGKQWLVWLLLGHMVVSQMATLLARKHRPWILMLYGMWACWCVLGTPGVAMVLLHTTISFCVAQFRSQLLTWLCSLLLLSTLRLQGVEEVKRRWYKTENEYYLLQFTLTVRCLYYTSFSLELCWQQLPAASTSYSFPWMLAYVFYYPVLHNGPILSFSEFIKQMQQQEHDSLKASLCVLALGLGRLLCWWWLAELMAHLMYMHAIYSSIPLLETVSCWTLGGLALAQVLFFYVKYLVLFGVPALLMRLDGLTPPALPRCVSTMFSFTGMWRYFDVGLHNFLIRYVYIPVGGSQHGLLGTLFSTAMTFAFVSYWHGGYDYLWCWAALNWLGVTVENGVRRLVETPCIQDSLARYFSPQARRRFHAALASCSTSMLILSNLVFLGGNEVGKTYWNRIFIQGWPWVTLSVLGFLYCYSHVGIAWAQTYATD

At HHAT [1], `Cc1cc(C2CCCCC2)n(O)c(=O)c1` [Ciclopirox] displayed an inhibition at 25 µM greater than 80%.

For `Oc1ccc(C2CNCCc3c2cc(O)c(O)c3Cl)cc1` (centres unmarked) [Fenoldopam Mesylate], the inhibition at 25 µM against HHAT [1] is greater than 80%.

In the case of `CCCCCCCCCCCCCCCC(=O)SCCNC(=O)CCNC(=O)[C@H](O)C(C)(C)COP(=O)(O)OP(=O)(O)OC[C@H]1O[C@@H](n2cnc3c(N)ncnc32)[C@H](O)[C@@H]1OP(=O)(O)O` [Pal-CoA, palmitoyl-CoA], the Vmax amounted to 0.081 pmol min^–1 at HHAT [2] (Pal-CoA titration, SHH-FAM palmitoylation) and 0.081 pmol/min on HHAT [2] (Pal-CoA titration, initial velocity conditions). The Km on HHAT [2] (Pal-CoA titration, SHH-FAM palmitoylation, initial velocity conditions, read-out: apparent KM) was found to be 0.17 µM.

As to `CCCCCCCCCCCCCCCC(=O)N[C@@H](CS)C(=O)NCC(=O)N1CCC[C@H]1C(=O)NCC(=O)N[C@@H](CCCNC(=N)N)C(=O)NCC(=O)N[C@@H](Cc1ccccc1)C(=O)NCC(=O)N[C@@H](CCCCN)C(=O)N[C@@H](CCCNC(=N)N)C(=O)N[C@@H](CCCCN)C(N)=O` [Pal-SHH] (HELM PEPTIDE1{[CCCCCCCCCCCCCCCC(=O)[*:2]].C.G.P.G.R.G.F.G.K.R.K.[am]}$$$$V2.0), the IC50 on HHAT [2] (setting [5]) was 100 nM.

In the case of `CCC(C)CNCC(=O)N1CCc2sccc2C1COc1cccc(C)c1` (centres unmarked) [RUSKI-43], the IC50 at HHAT [2] (setting [6]) is 17000 nM.

At HHAT [1], `CCC(C)CNCC(=O)N1CCc2sccc2C1c1cccc(C)n1` (centres unmarked) [RUSKI-201] returned an inhibition at 25 µM greater than 80%. The IC50 on HHAT [2] (setting [6]) amounted to 2000 nM. Besides, the “inhibition of SHH acylation (YnC15 tagging) by in-gel fluorescence” value in assay [3] (IGF) was “showed inhibition of SHH acylation”. For the same compound, in assay [3] (α-SHH western blot), the “inhibition of SHH acylation assessed by increased molecular weight in anti-SHH blotting” value is reported as “displayed inhibition”.

For `O=C1Cc2cc(CCN3CCN(c4nsc5ccccc45)CC3)c(Cl)cc2N1` [Ziprasidone·HCl], the inhibition at 25 µM against HHAT [1] is greater than 80%.

On to CGPGRGFGKRK-NH2 [SHH], for which, at HHAT [2] (setting [5]), the IC50 is 370 nM.

RUSKI-41: at HHAT [2] (setting [6]), the IC50 was 5700 nM.

As to RUSKI-101, at HHAT [2] (setting [6]), the IC50 came out at 2100 nM.

As to “SHH(FL): N-terminal signalling domain of the mature full-length SHH protein (residues 24–193), expressed in E. coli without lipid modification”, the IC50 with HHAT [2] (setting [5]) stood at 440 nM.

As for bovine serum albumin [BSA], in assay [4], the EC50 stood at 490 nM.
